Data from patent publication US20250170130A1, “MODULATORS OF MYC FAMILY PROTO-ONCOGENE PROTEIN” (Nalo Therapeutics, priority 2022, published 2025).

Experiments:
[1] = target: T1, MycC (Homo sapiens, UniProt P01106); experiment: Degradation of MycC protein in L363 cells, JESS/Western blot of lysates; assay type: cell-based; details: L-363, 24 h, L-363 cells, 24 h; for Dmax at 0.5 µM: read-out: % Degradation of MycC (L-363) 24 h, 0.5 μM; for Dmax at 1 µM: read-out: % Degradation of MycC (L-363) 24 h, 1 μM; for Dmax at 3 µM: read-out: % Degradation of MycC (L-363) 24 h, 3 μM; for Dmax at 6 µM: read-out: % Degradation of MycC (L-363) 24 h, 6 μM
T1 construct: endogenous in cells; host or cells: L363
T1 sequence (P01106 whole entry): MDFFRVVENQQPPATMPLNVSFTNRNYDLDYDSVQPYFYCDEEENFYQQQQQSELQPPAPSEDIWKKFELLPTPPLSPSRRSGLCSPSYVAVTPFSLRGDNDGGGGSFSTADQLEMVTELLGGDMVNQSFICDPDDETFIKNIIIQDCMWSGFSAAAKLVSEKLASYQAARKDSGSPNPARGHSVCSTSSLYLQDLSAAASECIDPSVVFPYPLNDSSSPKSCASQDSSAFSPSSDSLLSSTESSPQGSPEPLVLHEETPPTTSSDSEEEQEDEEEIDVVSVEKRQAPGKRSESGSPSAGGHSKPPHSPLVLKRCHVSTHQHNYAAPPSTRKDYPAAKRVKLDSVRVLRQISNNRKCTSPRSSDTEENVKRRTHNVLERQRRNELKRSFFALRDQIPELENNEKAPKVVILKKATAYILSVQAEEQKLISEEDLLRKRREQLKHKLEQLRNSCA
Description: For L363 cells (suspension), 1E6 cells were plated into each well of a 6 well plate. For SK-N-BE(2) cells (adherent), 5E5 cells were plated into each well of a 6 well dish. […] All compounds were diluted to 10 mM in DMSO. Cells were treated with the compound for 24 hrs, then for both cell types, media containing cells were removed from wells into a 15 ml centrifuge tube, and remaining adherent SK-N-BE(2) cells were also scraped from the wells into the appropriate tubes. Tubes were centrifuged, cells were washed with PBS then re-centrifuged to pellet cells. A RIPA buffer cocktail was added to the cells on ice for 5 mins. Cell lysates were clarified by centrifugation and stored at −80 degrees until required. BCA assay was performed on each lysate to determine the protein concentration.
(§1) Once an appropriate lysate concentration and antibody concentration was determined, samples were screened in the JESS technology (Protein Simple, San Jose, CA—https://www.proteinsimple.com/jess.html).
(§2) Target protein antibodies (n-myc and c-myc) were detected in the chemi-luminescence channel and loading controls (tubulin and GAPDH) were detected using a Near Infra Red (NIR) labeled secondary antibody.
For SK-N-EB2 adherent cells, 5E5 cells in 1.9 mls media were plated into 6 well dishes and incubated for 24 hrs. […] Cells were scrapped off the plate, centrifuged, washed with PBS, centrifuged, then a RIPA buffer cocktail added to the cells (100 ul), centrifuged and stored at −80 for later analysis. For L363 suspension cells, 1E6 cells were plated into […] (950 ul media) and incubated for 24 hrs. […] Cells were aspirated into tubes, centrifuged, washed with PBS, centrifuged, then a RIPA buffer cocktail added to the cells (100 ul), centrifuged and stored at −80 for later analysis.
(§3) For Western blot, a BCA (total protein) assay was run on all samples, these were then run in batches of 5 compounds plus control (DMSO) on each Western blot run—n-myc and c-myc were run in separate experiments in the chemiluminescence channel. Both tubulin and GAPDH were run as loading controls in all lanes in the near infra red channel.

[2] = target: T2, MycN (Homo sapiens, UniProt P04198); experiment: Degradation of MycN protein in SK-N-BE(2) cells, JESS/Western blot of lysates; assay type: cell-based; details: SKNBE2, 24 h, SKNBE2 cells, 24 h; for Dmax at 0.5 µM: read-out: % Degradation of MycN (SKNBE2) 24 h, 0.5 μM; for Dmax at 1 µM: read-out: % Degradation of MycN (SKNBE2) 24 h, 1 μM; for Dmax at 3 µM: read-out: % Degradation of MycN (SKNBE2) 24 h, 3 μM; for Dmax at 6 µM: read-out: % Degradation of MycN (SKNBE2) 24 h, 6 μM
T2 construct: endogenous in cells; host or cells: SK-N-BE(2)
T2 sequence (P04198 1-464): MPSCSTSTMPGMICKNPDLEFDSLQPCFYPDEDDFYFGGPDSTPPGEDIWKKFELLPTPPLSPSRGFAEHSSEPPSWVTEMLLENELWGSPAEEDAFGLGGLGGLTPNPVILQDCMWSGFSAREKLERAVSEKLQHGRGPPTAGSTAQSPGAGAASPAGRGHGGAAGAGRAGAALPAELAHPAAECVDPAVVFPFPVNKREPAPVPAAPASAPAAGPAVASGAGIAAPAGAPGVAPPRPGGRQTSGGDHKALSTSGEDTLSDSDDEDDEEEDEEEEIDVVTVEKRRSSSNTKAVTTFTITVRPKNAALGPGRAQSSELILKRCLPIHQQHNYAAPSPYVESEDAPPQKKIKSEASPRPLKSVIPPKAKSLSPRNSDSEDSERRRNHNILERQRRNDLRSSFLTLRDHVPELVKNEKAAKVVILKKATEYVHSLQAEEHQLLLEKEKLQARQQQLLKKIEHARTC
Description: For L363 cells (suspension), 1E6 cells were plated into each well of a 6 well plate. For SK-N-BE(2) cells (adherent), 5E5 cells were plated into each well of a 6 well dish. Cells were cultured for 24 hrs then treated with exemplary compounds at […] final assay concentrations plus DMSO control. All compounds were diluted to 10 mM in DMSO. Cells were treated with the compound for 24 hrs, then for both cell types, media containing cells were removed from wells into a 15 ml centrifuge tube, and remaining adherent SK-N-BE(2) cells were also scraped from the wells into the appropriate tubes. Tubes were centrifuged, cells were washed with PBS then re-centrifuged to pellet cells. A RIPA buffer cocktail was added to the cells on ice for 5 mins. Cell lysates were clarified by centrifugation and stored at −80 degrees until required. BCA assay was performed on each lysate to determine the protein concentration.
as §1, §2
For SK-N-EB2 adherent cells, 5E5 cells in 1.9 mls media were plated into 6 well dishes and incubated for 24 hrs. Exemplary compounds were added (100 ul, 1 in 20 dilution in media) to each well (final assay concentration 6, 3, 1 and […]) together with DMSO control wells and incubated for 24 hrs. Cells were scrapped off the plate, centrifuged, washed with PBS, centrifuged, then a RIPA buffer cocktail added to the cells (100 ul), centrifuged and stored at −80 for later analysis. For L363 suspension cells, 1E6 cells were plated into 24 well dishes (950 ul media) and incubated for 24 hrs. Exemplary compounds were added (50 ul, 1 in 20 dilution in media) to each well (final assay concentration 6, 3, 1 and […]) together with DMSO control wells and incubated for 24 hrs. Cells were aspirated into tubes, centrifuged, washed with PBS, centrifuged, then a RIPA buffer cocktail added to the cells (100 ul), centrifuged and stored at −80 for later analysis.
as §3

Row | Structure (SMILES) | Dmax at 0.5 µM [1] | Dmax at 1 µM [1] | Dmax at 3 µM [1] | Dmax at 6 µM [1] | Dmax at 0.5 µM [2] | Dmax at 1 µM [2] | Dmax at 3 µM [2] | Dmax at 6 µM [2]
1 | CN1CC2(C1)CN(c1nccc(Nc3cc(C4CC4)[nH]n3)n1)C2 [Compound 4, N-(5-Cyclopropyl-1H-pyrazol-3-yl)-2-(6-methyl-2,6-diazaspiro[3.3]heptan-2-yl)pyrimidin-4-amine] | < 20% | 20 to 49% | 80 to 100% | 80 to 100% | < 20% | 20 to 49% | 20 to 49% | 20 to 49%
2 | c1cc(Nc2cc(C3CC3)[nH]n2)nc(N2CC3(CNC3)C2)n1 [Compound 6, N-(5-Cyclopropyl-1H-pyrazol-3-yl)-2-(2,6-diazaspiro[3.3]heptan-2-yl)pyrimidin-4-amine] | < 20% | 20 to 49% | < 20% | 20 to 49% | < 20% | < 20% | < 20% | < 20%
3 | CNC[C@H]1CCN(c2nccc(Nc3cc(C4CC4)[nH]n3)n2)C1 [Compound 7, (R)—N-(5-Cyclopropyl-1H-pyrazol-3-yl)-2-(3-((methylamino)methyl)pyrrolidin-1-yl)pyrimidin-4-amine] | – | < 20% | – | – | < 20% | < 20% | 50 to 79% | 80 to 100%
4 | CN[C@H]1CCN(c2nccc(Nc3cc(C4CC4)[nH]n3)n2)C1 [Compound 8, (S)—N-(5-cyclopropyl-1H-pyrazol-3-yl)-2-(3-(methylamino)pyrrolidin-1-yl)pyrimidin-4-amine] | < 20% | < 20% | 20 to 49% | – | – | – | < 20% | –
5 | CN(C)[C@H]1CCN(c2nccc(Nc3cc(C4CC4)[nH]n3)n2)C1 [Compound 9, (S)—N-(5-Cyclopropyl-1H-pyrazol-3-yl)-2-(3-(dimethylamino)pyrrolidin-1-yl)pyrimidin-4-amine] | 20 to 49% | 20 to 49% | 20 to 49% | 80 to 100% | 20 to 49% | 20 to 49% | < 20% | < 20%
6 | CNCC12CC(C1)N(c1nccc(Nc3cc(C4CC4)[nH]n3)n1)C2 [Compound 14, N-(5-cyclopropyl-1H-pyrazol-3-yl)-2-(4-((methylamino)methyl)-2-azabicyclo[2.1.1]hexan-2-yl)pyrimidin-4-amine] | 20 to 49% | 80 to 100% | 80 to 100% | 80 to 100% | < 20% | 20 to 49% | 20 to 49% | 80 to 100%

More lines, now with the values ahead:

Row | Dmax at 0.5 µM [1] | Dmax at 1 µM [1] | Dmax at 3 µM [1] | Dmax at 6 µM [1] | Dmax at 0.5 µM [2] | Dmax at 1 µM [2] | Dmax at 3 µM [2] | Dmax at 6 µM [2] | Structure (SMILES)
7 | < 20% | < 20% | 20 to 49% | 20 to 49% | – | – | – | 20 to 49% | CN(C)CC1CCN(c2nccc(Nc3cc(C4CC4)[nH]n3)n2)CC1 [Compound 5, N-(5-Cyclopropyl-1H-pyrazol-3-yl)-2-(4-((dimethylamino)methyl)piperidin-1-yl)pyrimidin-4-amine]
8 | < 20% | < 20% | – | 20 to 49% | – | 20 to 49% | 80 to 100% | 80 to 100% | NCC1CCN(c2nccc(Nc3cc(C4CC4)[nH]n3)n2)CC1 [Compound 10, 2-(4-(aminomethyl)piperidin-1-yl)-N-(5-cyclopropyl-1H-pyrazol-3-yl)pyrimidin-4-amine]
9 | – | – | < 20% | – | < 20% | 80 to 100% | 80 to 100% | 80 to 100% | NC[C@H]1CCN(c2nccc(Nc3cc(C4CC4)[nH]n3)n2)C1 [Compound 11, (R)-2-(3-(Aminomethyl)pyrrolidin-1-yl)-N-(5-cyclopropyl-1H-pyrazol-3-yl)pyrimidin-4-amine]
10 | < 20% | < 20% | 50 to 79% | 80 to 100% | – | – | 20 to 49% | 50 to 79% | CNCC1CCN(c2nccc(Nc3cc(C4CC4)[nH]n3)n2)CC1 [Compound 12, N-(5-Cyclopropyl-1H-pyrazol-3-yl)-2-(4-((methylamino)methyl)piperidin-1-yl)pyrimidin-4-amine]
